Consider 15 molecules from PubChem BioAssay (NCI).

What all share (test): NCI tumour cell line growth inhibition, 48 h
Assay [1] concerns OVCAR-4 ovarian.
The subject of assay [2] is A498 renal.
Assay [3] relates to HL-60(TB) leukemia.
The subject of assay [4] is NCI-H23 lung.
Assay [5] has as its system OVCAR-5 ovarian.
Assay [6] relates to EKVX NSCLC.
Assay [7] deals with ACHN renal.
Assay [8] concerns CCRF-CEM leukemia.
Assay [9] deals with DU-145 prostate.

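Assay format: 96-well plates, 48-hour exposure. GI50 = concentration required for 50% inhibition of growth. TGI marks complete inhibition of growth.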

With `COC(=O)C1=CO[C@@H](OC2CC(CO)C(O)C(O)C2O)[C@@H]2[C@@H](C)[C@@H](OC(=O)/C=C/c3ccccc3)[C@@H](O)[C@H]12` (some centres not stated) (tested in a mixture with another compound), the TGI in assay [1], in assay [2], in assay [3], in [4], in [5] and in [6] was more than 100 µM in each case. The TGI in assay [7] and in assay [8] was more than 100 µM in each case.

As to `O=C(/C=C/c1ccccc1)Oc1cccc2cccnc12`, the TGI in assay [1] is 27.6 µM; in assay [3], more than 28.1 µM; in [4], 20 µM; in [5], 80.6 µM; in [6], more than 68.2 µM; in assay [7], more than 100 µM. Moreover, the TGI in assay [8] was more than 29.3 µM.

Regarding `C[N+](C)(C)CCC(=O)CC[N+](C)(C)C`, the TGI was 34.8 µM in assay [1]; more than 100 µM in assay [2]; 17.5 µM in assay [3]; 55.9 µM in [4]; more than 100 µM in [6]; 31.3 µM in assay [7]. In assay [8], this molecule displayed a TGI of 7.42 µM.

As for `CCc1c(C#N)c(=O)[nH]c(=O)n1CCN1CCN(C(=O)NCCCCCCNC(=O)N2CCN(CCn3c(CC)c(C#N)c(=O)[nH]c3=O)CC2)CC1`, the TGI in assay [1], in [2], in assay [3], in [6], in assay [7] and in [8] was more than 100 µM in each case.

For the molecule `CC[O-].CC[O-].O=C([CH-]C(=O)c1ccccc1)CCCCCCCCC(=O)[CH-]C(=O)c1ccccc1.[Ti+4]`, the GI50 is 78.8 µM in assay [1]; more than 100 µM in assay [2]; more than 100 µM in assay [3]; 92 µM in assay [4]; more than 100 µM in [5]; more than 100 µM in assay [6]. The figures for the GI50 in [7] and in assay [8] were more than 100 µM and 41.8 µM, respectively. For the same molecule, the TGI in [1], in assay [2], in [3], in [4], in assay [5] and in [6] was more than 100 µM in each case. Besides, the TGI in assay [7] and in [8] was more than 100 µM each time.

As for `CC1=C(C(=O)Nc2ccccc2C)C(c2ccc(Cl)cc2)C(C(=O)Nc2ccccc2C)=C(C)N1`, the TGI in assay [1], in assay [3], in assay [4], in [5], in assay [6] and in [7] was more than 100 µM throughout. Further, the TGI in [8] was more than 100 µM.

Take `C/C=C/C(C#N)O[Si](C)(C)C` (configuration not stated): the TGI in [1], in assay [2], in assay [3], in assay [4], in [5] and in assay [6] was more than 100 µM throughout. The molecule also returned a TGI in [7] of more than 100 µM.

In the case of `COC(=O)c1sc(C(=O)OC)c2c1CS(=O)C2`, the TGI in assay [1], in assay [2], in assay [3], in assay [4], in assay [5] and in assay [6] was more than 100 µM in each case. Moreover, the TGI in assay [8] was more than 100 µM.

With `C=C(c1ccccc1)C1(O)CCCCC1N` (configuration not stated), the TGI in [1] was more than 100 µM; in assay [2], more than 100 µM; in [3] it was 43.5 µM; in assay [4], more than 100 µM; in assay [5], more than 100 µM; in [6], more than 100 µM. Moreover, the TGI is more than 100 µM in [7] and 95.3 µM in assay [8].

On to `COC1=NCc2ccccc2-c2ccccc21`, for which the TGI in assay [1], in [3], in assay [4], in [7] and in assay [8] was more than 100 µM each time.

In the case of `COC(=O)/C(=N\NC(C)(C)C)C(C(=O)OC)C(=O)C(=O)Nc1cc(Cl)ccc1Cl` (configuration not stated), the TGI in [1], in [2], in [3], in [4], in assay [5] and in [6] was more than 100 µM throughout. Moreover, the TGI in assay [7] and in assay [8] was more than 100 µM throughout.

For `O=C(COc1ccccc1Cl)N1N=C(c2ccc(Cl)cc2)CC1(O)c1ccccc1` (configuration not stated), the TGI in assay [1], in assay [3], in assay [4], in assay [5] and in assay [7] was more than 100 µM in each case.

Regarding `O=C(Oc1cccnc1)c1cccnc1Nc1ccnc(C(F)(F)F)c1`, the GI50 is more than 100 µM in assay [1]; 19.6 µM in [2]; 6.38 µM in [4]; 72.8 µM in assay [5]; 51.3 µM in assay [6]; 15 µM in [9]. Moreover, the GI50 is 21.7 µM in assay [7] and 2.49 µM in [8]. Moreover, the TGI in [1] was more than 100 µM; in assay [2] it was 41 µM; in assay [4] it was more than 100 µM; in [5], more than 100 µM; in [6], more than 100 µM; in [9], 42.1 µM. Further, the values for the TGI in [7] and in assay [8] were 66 µM and 10.5 µM, respectively.

With `O=C1Nc2ccccc2C1(O)C/C(=N/O)c1ccc2ccccc2c1` (configuration not stated), the TGI in assay [1], in assay [2], in [3], in assay [4], in assay [5] and in assay [6] was more than 100 µM each time. Moreover, the TGI in [7] and in [8] was more than 100 µM throughout.

Regarding `CCOC(=O)NC(=O)c1cn(CCN2CCN(C(=O)NCCCCCCNC(=O)N3CCN(CCn4cc(C(=O)NC(=O)OCC)c(=O)[nH]c4=O)CC3)CC2)c(=O)[nH]c1=O`, the TGI in assay [1], in assay [2], in assay [3], in assay [4], in assay [5] and in [6] was more than 100 µM throughout. The same molecule came in with a TGI in [7] of more than 100 µM.
